Test results: patent US9265189B2, “Method for reducing damage by harmful organisms in corn cultivation” (SUMITOMO CHEMICAL COMPANY, LIMITED, priority 2012, dated 2016)

Test system: Diabrotica virgifera virgifera and Agriotes lineatus
Assay: Field test, corn lodged due to damage by Diabrotica virgifera virgifera and Agriotes lineatus (Example 4)
Format: in vivo
Conditions: Example section 4: clothianidin 80 g/ha, in-furrow spray of Dantop 50WG 125 L/ha, corn DKC 5143 seed treated with Maxim XL, 165 days after application; non-treatment section 23
Procedure: Ammonium phosphate (N:P:K=12:52:0) and urea (N:P:K=46:0:0), each of which being a fertilizer, were applied to the soil surface of a cultivated land at 100 kg/ha and 260 kg/ha, respectively, and the cultivated land was plowed. 24 days after fertilization, using a pneumatic seeder (disk furrow opener) equipped with a power sprayer, a cultivated land was ditched at intervals of 75 cm to a depth of 5 cm from the soil surface, and the furrow was seeded with corn (Zea Mays, variety name: DKC 5143; hybrid variety, manufactured by Monsanto). The cultivated land was seeded at intervals of 20 cm using, as a corn seed, one treated with a mixed agent of metalaxyl-M and fludioxonil (trade name: Maxim XL, manufactured by Syngenta). A seeding density of corn was 66667 seeds/ha. […] 165 days after application of the clothianidin water dispersible granule, the number of plants of corn lodged due to damage by Diabrotica virgifera virgifera and Agriotes lineatus in the furrows of the example section 4 and the non-treatment section, for which the number of plants of corn germinated was investigated, was investigated, a lodge rate was calculated in accordance with the following equation, and then an average lodge rate for the four investigation sections was determined. […]

**Q.** For `CN/C(=N\[N+](=O)[O-])NCc1cnc(Cl)s1` [clothianidin], which “Lodge rate (%)” value is on record?
**A.** 4%
